# Assays:
# [1] = test system: murine Progenitor Cells (C3H10T1/2 cells); assay: DNA synthesis (3H-Thymidine) in 2 day monolayer cultures; assay type: cell-based; details: murine progenitor cell line, FIG. 10
# Excerpt: FIG. 10. A bar graph of the concentration dependent effects of Pentosan Polysulfate (PPS) on DNA synthesis by murine Progenitor Cells (C3H10T1/2 cells) grown in monolayer cultures for 2 days as determined by the incorporation of ^3H-Thymidine into macromolecular DNA.
# [2] = test system: Smad 4; assay: RT-PCR gene expression, 2 day monolayer ATDC5 cultures; assay type: cell-based, murine; details: ATDC5 cells; concentrations shown to stimulate PG synthesis; FIG. 26
# Excerpt: (§1) FIG. 26. RT-PCR detection of gene expression of Runx2 and the transduction proteins, Smad 2 and Smad 4 and the housekeeping gene NADPH expressed by Murine ATDC5 progenitor cells cultured in the presence and absence of rhNC4 (Batch PBA-1209P) and PPS for 2 days in monolayer cultures.
# (§2) Total RNA was isolated from Progenitor cells according to the manufacturer's instructions for the Aurum total RNA mini kit (Bio-Rad, USA). The RNA was reverse transcribed with RevertAid™ H Minus First Stand cDNA Synthesis Kit (Fermentas, USA). PCR products were transferred to an agarose gel, and visualized by ethidium bromide staining, and integrated densities calculated using Scion image analysis software, normalized to the house-keeping gene Glyceraldehydes-3-phosphate dehydrogenase (GAPDH) to permit semi-quantitative comparisons in mRNA levels. (L. Marchuk, P. Sciore, C. Reno, C. B. Frank, D. A. Hart. Postmortem stability of total RNA isolated from rabbit ligament, tendon and cartilage, Biochim Biophys Acta. 1379 (1998) 171-177. R. Boykiw, P. Sciore, C. Reno, L. Marchuk, C. B. Frank, D. A. Hart. Altered levels of extracellular matrix molecule mRNA in healing rabbit ligaments, Matrix Biol. 17 (1998) 371-378.)
# [3] = test system: Smad 2; assay: as above; assay type: cell-based, murine; details: ATDC5 cells; concentrations shown to stimulate PG synthesis; FIG. 26
# Excerpt: as §1, §2
# [4] = test system: murine ATDC5 progenitor cells; assay: Viability after freeze-thawing cycle, MTT assay; assay type: cell-based
# Description: FIG. 2. Bar graph showing the viability of different numbers of murine ATDC5 progenitor cells suspended in cryogenic media containing 7.5% DMSO and various concentrations of Pentosan Polysulfate (PPS) after being subjected to freeze-thawing cycle. Cell viability was determined using the mitochondrial dehydrogenase MTT assay.
# Murine Progenitor cells (cell lines C3H10T1/2 or ATDC5) purchased from RIKEN Cell Bank (Tsukuba, Japan) or human immunoselected Stro-1+ progenitor cells (Mesoblast Ltd, Melbourne, Australia) were seeded at a various cell densities over the range of 1.68×10^5-1.0×10^6 cells into 2 mL screw-capped centrifuge tubes containing in DMEM+10% FBS. In separate tubes a stock solution containing 2× the required concentrations of PPS dissolved in DMEM+20% FBS and 15% DMSO were prepared. These stock solutions were added to the cell cultures such that the final concentration of PPS was half that of the stock concentration and of FBS was 10% and DMSO was […]. […] All concentrations of PPS used were examined in triplicated. Cells and the cryopreservation solutions containing the PPS were mixed gently for 5 mins and stored in liquid nitrogen. After 3 days, the tubes were removed from liquid nitrogen and thawed in 37° C. water bath and allowed to stand at ambient temperature for about 15 min. The cells were centrifuged down at 200 g for 5 min and the supernatant discarded. The cells were washed with 900 ul of DMEM without phenol red, and then centrifuged down at 200 g for 5 min. The cells were resuspended in 500 ul of 1 mg/ml MTT solution in DMEM and incubated in 37° C. for 3 hours then centrifuged at 6000 g for 5 min. 300 ul of DMSO was added to each tube to dissolved the dye crystals. 90 ul×3 from each tube were transferred to a 96-well plate and the absorbance at 540 nm determined.
# Cell viability was determined using the MTT assay.
substance,measurement,setting,value
pentosan polysulfate [PPS],cell division (3H-Thymidine incorporation into DNA),[1],Marked stimulation of cell division
same,expression of Smad 4,[2],up regulation
same,expression of Smad 2,[3],up regulation
same,cell viability after freeze-thawing (MTT),"[4]; 100 μg/ml PPS, 0.25, 0.5 and 1.0 million cells",viability was enhanced
same,cell viability after freeze-thawing (MTT),"[4]; 500 μg/ml PPS, 0.25 million and 0.5 million cells",enhancement is seen
same,cell viability after freeze-thawing (MTT),"[4]; 500 μg/ml PPS, 1 million cells",did not appear to enhance viability but was not detrimental to viability
same,cell viability after freeze-thawing (MTT),"[4]; 7.5% DMSO, all PPS concentrations, FIG. 2",enhanced by the presence of PPS at all concentrations
